Assay results: article PMC11606603, “The membrane domains of mammalian adenylyl cyclases are lipid receptors” (eLife, 2024)
Where “and” joins values, the source holds several entries; their conditions need not be identical. Equal values may be shown once.

Key:
Type in all cases: biochemical
[1] = molecular target: T1, mAC2 (Homo sapiens, UniProt Q08462); assay: AC assay, Gsα-stimulated mAC2 in membranes from transfected HEK293 cells
T1 construct: Human mAC genes were from GenScript and fitted with a C-terminal FLAG-tag; FLAG (C); made in house; host or cells: HEK293, permanently transfected; membrane preparation
Procedure, shortened: (§1)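 EC50 and IC50 values come from cAMP production, read with a Cisbio cAMP kit and converted via a standard curve. Assay mix held 1 mM ATP, 2 mM MgCl2, 3 mM creatine phosphate and 60 μg/ml creatine kinase in 50 mM MOPS pH 7.5, using transfected HEK293 membranes.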

[2] = molecular target: T2, mAC9 (Homo sapiens, UniProt O60503); assay: AC assay, Gsα-stimulated mAC9 in membranes from transfected HEK293 cells; conditions: for mAC9 activity (%);(100% = Gsα stimulation) stimulated by 300nM Gsα: single experiments
T2 construct: Human mAC genes were from GenScript and fitted with a C-terminal FLAG-tag; FLAG (C); made in house; host or cells: HEK293, permanently transfected; membrane preparation
Procedure, shortened: as §1

[3] = molecular target: T3, mAC5 (Homo sapiens, UniProt O95622); assay: AC assay, Gsα-stimulated mAC5 in membranes from transfected HEK293 cells; conditions: 20µM fatty acid concentration
T3 construct: Human mAC genes were from GenScript and fitted with a C-terminal FLAG-tag; FLAG (C); made in house; host or cells: HEK293, permanently transfected; membrane preparation
Procedure, shortened: as §1

[4] = molecular target: T4, mAC7 (Homo sapiens, UniProt P51828); assay: AC assay, Gsα-stimulated mAC7 in membranes from transfected HEK293 cells; conditions: Figure 5-figure supplement 2 left, 20 µM
T4 construct: Human mAC genes were from GenScript and fitted with a C-terminal FLAG-tag; FLAG (C); made in house; host or cells: HEK293, permanently transfected; membrane preparation
Procedure, shortened: as §1

[5] = molecular target: T5, mAC4 (Homo sapiens, UniProt Q8NFM4); assay: AC assay, Gsα-stimulated mAC4 in membranes from transfected HEK293 cells; conditions: 20 µM fatty acid; 300 nM Gsα; single experiments
T5 construct: Human mAC genes were from GenScript and fitted with a C-terminal FLAG-tag; FLAG (C); made in house; host or cells: HEK293, permanently transfected; membrane preparation
T5 sequence (Q8NFM4 1-1077): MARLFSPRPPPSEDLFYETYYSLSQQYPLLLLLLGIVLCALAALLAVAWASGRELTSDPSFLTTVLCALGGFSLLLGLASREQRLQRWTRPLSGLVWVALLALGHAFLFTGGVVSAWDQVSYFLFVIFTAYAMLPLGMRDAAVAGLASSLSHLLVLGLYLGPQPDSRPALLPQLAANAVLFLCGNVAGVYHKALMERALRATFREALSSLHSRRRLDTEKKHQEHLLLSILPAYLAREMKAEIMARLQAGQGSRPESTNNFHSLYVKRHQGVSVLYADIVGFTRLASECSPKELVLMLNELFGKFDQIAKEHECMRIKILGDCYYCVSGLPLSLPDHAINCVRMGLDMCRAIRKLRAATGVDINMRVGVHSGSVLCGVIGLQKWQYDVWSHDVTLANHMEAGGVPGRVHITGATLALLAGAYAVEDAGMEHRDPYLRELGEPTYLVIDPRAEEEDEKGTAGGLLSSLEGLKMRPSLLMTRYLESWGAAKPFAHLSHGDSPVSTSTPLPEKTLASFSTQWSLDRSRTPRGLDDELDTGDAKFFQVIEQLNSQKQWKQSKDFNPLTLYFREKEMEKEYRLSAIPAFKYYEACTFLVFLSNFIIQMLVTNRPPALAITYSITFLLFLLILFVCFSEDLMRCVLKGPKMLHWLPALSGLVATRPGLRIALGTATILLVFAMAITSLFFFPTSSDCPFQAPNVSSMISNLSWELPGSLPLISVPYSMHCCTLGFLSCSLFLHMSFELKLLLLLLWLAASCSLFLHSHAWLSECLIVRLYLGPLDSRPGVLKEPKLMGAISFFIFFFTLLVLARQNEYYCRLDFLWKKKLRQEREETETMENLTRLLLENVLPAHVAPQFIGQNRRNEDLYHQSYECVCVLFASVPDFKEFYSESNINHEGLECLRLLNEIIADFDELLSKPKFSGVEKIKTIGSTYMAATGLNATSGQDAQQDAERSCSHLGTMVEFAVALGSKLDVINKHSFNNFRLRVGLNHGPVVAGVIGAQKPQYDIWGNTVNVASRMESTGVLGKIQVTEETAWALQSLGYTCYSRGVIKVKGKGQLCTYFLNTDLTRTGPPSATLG
Procedure, shortened: as §1

[6] = molecular target: T6, mAC1 (Homo sapiens, UniProt Q08828); assay: AC assay, Gsα-stimulated mAC1 in membranes from transfected HEK293 cells; conditions: 20 µM fatty acid; 300 nM Gsα; single experiments
T6 construct: Human mAC genes were from GenScript and fitted with a C-terminal FLAG-tag; FLAG (C); made in house; host or cells: HEK293, permanently transfected; membrane preparation
Procedure, shortened: as §1

[7] = molecular target: T7, mAC6 (Homo sapiens, UniProt O43306); assay: AC assay, Gsα-stimulated mAC6 in membranes from transfected HEK293 cells; conditions: 20µM fatty acid concentration
T7 construct: Human mAC genes were from GenScript and fitted with a C-terminal FLAG-tag; FLAG (C); made in house; host or cells: HEK293, permanently transfected; membrane preparation
Procedure, shortened: as §1

[8] = molecular target: T8, mAC3 (Homo sapiens, UniProt O60266); assay: AC assay, Gsα-stimulated mAC3 in membranes from transfected HEK293 cells
T8 construct: Human mAC genes were from GenScript and fitted with a C-terminal FLAG-tag; FLAG (C); made in house; host or cells: HEK293, permanently transfected; membrane preparation
Procedure, shortened: as §1

[9] = molecular target: T9, mAC8 (Homo sapiens, UniProt P40145); assay: AC assay, Gsα-stimulated mAC8 in membranes from transfected HEK293 cells; conditions: 20µM fatty acid concentration
T9 construct: Human mAC genes were from GenScript and fitted with a C-terminal FLAG-tag; FLAG (C); made in house; host or cells: HEK293, permanently transfected; membrane preparation
Method: hAC sequences were from NCBI were: ADCY1: NM_021116.3; ADCY2: NM_020546.2; ADCY3: NM_004036.4; ADCY4: NM_001198568.2; ADCY5: NM_183357.2; ADCY6: NM_015270.4; ADCY7: NM_001114.4; ADCY8: NM_001115.2; ADCY9: NM_001116.3. Human mAC genes were from GenScript and fitted with a C-terminal FLAG-tag. […] The gene was synthesized by GenScript. HEK293 cells were maintained in Dulbeccos Modified Eagle Medium (DMEM) with 10% fetal bovine serum at 37°C and 5% CO2. Transfection with AC plasmids was with PolyJet (SignaGen, Frederick, MD, USA). Permanent cell lines were generated by selection for 7 days with 600 µg/ml G418 and maintained with 300 µg/ml For membrane preparation, cells were tyrpsinized, collected by centrifugation (3000 × g, 5 min) and lysed and homogenized in 20 mM HEPES, pH 7.5, 1 mM Ethylenediaminetetraacetic acid (EDTA), 2 mM MgCl2, 1 mM Dithiothreitol (DTT), one tablet of cOmplete, EDTA-free (per 50 ml) and 250 mM sucrose by 20 strokes in a potter homogenizer on ice. Debris was removed (5 min at 1000 × g, 0°C), membranes were collected at 100,000 × g, 60 min at 0°C, suspended and stored at −80°C in 20 mM MOPS, pH 7.5, 0.5 mM EDTA, 2 mM MgCl2. […] Three cerebral cortices were dissected and homogenized in 4.5 ml cold 48 mM Tris–HCl, pH 7.4, 12 mM MgC1_2, and 0.1 mM Ethylene glycol-bis(β-aminoethyl ether)-N,N,N′,N′-tetraacetic acid (EGTA) with a Polytron hand disperser (Kinematica AG, Switzerland). […] The pellet was washed once with 5 ml 1 mM KHCO3. The final suspension in 2 ml 1 mM KHCO3 was stored in aliquots at −80°C.
In a volume of 10 μl, AC activities were measured using 1 mM ATP, 2 mM MgCl2, 3 mM creatine phosphate, 60 μg/ml creatine kinase, and 50 mM MOPS pH 7.5. The cAMP assay kit from Cisbio (Codolet, France) was used for detection according to the supplier’s instructions. For each assay, a cAMP standard curve was established. EC50 and IC50 values were calculated by GraphPad Prism version 8.4.3 for Windows, GraphPad Software, San Diego, CA, USA, https://www.graphpad.com .

T1 sequence (Q08462 whole entry): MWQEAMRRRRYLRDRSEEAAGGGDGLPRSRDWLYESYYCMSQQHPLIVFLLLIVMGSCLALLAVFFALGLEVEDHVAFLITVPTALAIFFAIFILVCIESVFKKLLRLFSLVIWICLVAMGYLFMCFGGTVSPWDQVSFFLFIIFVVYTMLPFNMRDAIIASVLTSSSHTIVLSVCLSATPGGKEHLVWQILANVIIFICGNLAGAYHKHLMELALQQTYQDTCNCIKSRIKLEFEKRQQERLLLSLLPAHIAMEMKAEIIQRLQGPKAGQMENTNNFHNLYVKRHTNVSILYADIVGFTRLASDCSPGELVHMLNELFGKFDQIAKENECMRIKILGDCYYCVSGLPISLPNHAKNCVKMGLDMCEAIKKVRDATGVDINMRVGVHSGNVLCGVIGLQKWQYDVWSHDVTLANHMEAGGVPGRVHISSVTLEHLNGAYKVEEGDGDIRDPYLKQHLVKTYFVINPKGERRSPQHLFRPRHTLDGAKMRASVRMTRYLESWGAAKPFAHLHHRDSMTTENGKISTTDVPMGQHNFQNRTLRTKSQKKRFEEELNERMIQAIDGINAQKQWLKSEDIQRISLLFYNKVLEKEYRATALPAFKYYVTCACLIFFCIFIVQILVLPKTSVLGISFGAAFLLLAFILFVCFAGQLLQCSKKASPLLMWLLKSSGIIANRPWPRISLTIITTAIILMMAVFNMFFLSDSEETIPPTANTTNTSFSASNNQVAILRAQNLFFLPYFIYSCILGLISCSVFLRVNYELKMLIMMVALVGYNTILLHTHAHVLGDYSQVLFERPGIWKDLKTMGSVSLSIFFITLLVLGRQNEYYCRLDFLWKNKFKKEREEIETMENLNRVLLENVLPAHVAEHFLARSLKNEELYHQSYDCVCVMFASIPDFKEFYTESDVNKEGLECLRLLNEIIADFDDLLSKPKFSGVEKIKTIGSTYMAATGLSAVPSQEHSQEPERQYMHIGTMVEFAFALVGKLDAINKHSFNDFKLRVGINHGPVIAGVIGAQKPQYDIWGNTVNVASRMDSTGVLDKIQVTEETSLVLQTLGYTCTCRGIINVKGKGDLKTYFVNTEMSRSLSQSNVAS
T1 sequence (P63092 2-394 Q227L partner): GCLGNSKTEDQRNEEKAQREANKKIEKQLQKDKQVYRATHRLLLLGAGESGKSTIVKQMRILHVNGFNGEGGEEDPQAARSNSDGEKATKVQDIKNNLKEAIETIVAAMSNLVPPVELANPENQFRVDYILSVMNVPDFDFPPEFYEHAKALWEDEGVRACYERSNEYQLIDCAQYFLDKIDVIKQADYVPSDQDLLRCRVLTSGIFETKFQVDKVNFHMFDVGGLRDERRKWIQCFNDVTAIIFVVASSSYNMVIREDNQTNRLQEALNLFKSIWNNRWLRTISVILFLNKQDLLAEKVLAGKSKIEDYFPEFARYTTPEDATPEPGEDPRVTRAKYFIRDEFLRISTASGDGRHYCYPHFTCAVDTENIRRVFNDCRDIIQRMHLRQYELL
T8 sequence (O60266 whole entry): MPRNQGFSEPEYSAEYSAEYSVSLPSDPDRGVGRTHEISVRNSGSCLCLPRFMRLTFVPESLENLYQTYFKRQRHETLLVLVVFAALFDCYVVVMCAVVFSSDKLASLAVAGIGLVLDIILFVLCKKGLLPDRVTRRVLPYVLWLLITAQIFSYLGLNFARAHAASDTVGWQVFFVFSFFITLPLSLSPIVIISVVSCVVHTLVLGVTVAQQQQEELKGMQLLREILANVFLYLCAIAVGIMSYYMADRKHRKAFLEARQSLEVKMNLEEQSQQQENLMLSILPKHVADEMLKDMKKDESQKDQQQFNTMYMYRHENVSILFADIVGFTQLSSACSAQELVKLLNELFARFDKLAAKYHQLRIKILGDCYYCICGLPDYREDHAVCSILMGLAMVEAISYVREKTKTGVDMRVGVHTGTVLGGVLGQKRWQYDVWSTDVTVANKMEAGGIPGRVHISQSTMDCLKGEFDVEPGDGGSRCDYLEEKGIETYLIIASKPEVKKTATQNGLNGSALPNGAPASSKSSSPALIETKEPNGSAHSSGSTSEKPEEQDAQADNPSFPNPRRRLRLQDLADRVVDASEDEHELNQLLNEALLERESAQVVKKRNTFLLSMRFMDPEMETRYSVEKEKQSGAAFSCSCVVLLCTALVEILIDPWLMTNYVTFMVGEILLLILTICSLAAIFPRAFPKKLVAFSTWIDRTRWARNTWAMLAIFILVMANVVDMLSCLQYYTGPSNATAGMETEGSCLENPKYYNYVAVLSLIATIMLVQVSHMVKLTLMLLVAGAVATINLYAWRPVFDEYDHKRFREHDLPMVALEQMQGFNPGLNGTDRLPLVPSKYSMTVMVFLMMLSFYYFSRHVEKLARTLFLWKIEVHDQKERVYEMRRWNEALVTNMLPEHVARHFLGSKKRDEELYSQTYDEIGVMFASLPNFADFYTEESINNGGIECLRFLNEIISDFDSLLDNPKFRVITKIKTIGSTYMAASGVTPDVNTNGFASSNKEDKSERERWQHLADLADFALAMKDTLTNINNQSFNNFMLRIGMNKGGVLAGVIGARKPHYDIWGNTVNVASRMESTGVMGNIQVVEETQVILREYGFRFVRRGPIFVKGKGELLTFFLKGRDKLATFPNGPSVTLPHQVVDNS
T8 sequence (P63092 whole entry Q227L partner): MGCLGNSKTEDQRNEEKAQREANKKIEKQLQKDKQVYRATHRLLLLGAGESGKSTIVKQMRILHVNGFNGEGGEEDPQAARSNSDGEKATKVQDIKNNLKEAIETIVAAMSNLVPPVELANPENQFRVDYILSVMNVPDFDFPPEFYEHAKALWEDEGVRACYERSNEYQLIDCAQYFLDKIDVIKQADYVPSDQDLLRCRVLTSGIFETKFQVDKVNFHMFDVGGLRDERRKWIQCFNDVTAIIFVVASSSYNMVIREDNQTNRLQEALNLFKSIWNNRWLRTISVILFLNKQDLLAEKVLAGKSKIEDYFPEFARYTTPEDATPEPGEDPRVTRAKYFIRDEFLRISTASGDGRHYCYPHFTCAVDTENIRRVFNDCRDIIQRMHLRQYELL
T2 sequence (O60503 whole entry): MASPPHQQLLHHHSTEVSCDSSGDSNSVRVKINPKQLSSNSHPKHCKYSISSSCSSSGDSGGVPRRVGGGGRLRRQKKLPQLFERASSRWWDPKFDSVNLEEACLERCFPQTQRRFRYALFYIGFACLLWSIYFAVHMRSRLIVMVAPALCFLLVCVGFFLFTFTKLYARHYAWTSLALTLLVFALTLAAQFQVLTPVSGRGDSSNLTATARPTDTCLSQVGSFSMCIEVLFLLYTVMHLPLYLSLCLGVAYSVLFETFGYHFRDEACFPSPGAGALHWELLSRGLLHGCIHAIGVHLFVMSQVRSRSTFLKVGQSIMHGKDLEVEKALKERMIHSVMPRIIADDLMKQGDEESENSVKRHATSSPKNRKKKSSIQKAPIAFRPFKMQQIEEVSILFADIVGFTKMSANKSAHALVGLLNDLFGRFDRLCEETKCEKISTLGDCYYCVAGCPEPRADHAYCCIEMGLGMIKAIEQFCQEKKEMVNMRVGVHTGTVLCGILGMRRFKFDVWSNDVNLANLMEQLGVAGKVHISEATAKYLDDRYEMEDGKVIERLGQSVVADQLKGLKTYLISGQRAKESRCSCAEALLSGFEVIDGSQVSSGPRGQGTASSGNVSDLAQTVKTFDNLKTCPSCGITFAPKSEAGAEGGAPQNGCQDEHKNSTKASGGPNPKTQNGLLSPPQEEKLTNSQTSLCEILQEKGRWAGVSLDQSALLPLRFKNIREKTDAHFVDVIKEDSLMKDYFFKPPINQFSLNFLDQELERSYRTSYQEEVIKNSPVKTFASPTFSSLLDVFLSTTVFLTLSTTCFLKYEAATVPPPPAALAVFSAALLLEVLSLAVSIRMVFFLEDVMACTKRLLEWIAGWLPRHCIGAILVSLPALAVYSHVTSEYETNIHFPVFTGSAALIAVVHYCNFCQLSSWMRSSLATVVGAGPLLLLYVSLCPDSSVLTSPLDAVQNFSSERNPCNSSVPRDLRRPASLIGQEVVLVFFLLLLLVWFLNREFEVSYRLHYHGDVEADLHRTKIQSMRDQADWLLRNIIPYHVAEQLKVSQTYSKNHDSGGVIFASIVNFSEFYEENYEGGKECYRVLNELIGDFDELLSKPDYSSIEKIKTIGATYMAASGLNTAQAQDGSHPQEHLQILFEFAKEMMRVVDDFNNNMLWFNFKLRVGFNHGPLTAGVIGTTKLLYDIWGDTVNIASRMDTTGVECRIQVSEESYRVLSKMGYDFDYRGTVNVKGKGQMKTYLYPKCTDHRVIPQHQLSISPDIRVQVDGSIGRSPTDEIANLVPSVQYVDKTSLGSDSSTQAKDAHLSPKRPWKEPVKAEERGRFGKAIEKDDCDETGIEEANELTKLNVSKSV
T2 sequence (P63092 2-394 Q227L partner): as the sequence (P63092 2-394 Q227L partner) above

CCCCCC/C=C\CCCCCCCCCC(=O)O [cis-Vaccenic acid, cis-Vaccenic ((11E)-octadecenoic) acid]
Effect of lipid on 300 nM Gsα-stimulated mAC2 ([1]; 20 µM, in words): doubled | mAC2 activity [%] (100% = 300nM Gsα stimulation); 20µM fatty acid concentration ([1]; Figure 5-figure supplement 1 left, 20 µM): 243% and 149% and 146% and 170% and 233% | mAC2 activity (%);(100% = Gsα stimulation) stimulated by 300nM Gsα ([1]; cis-Vaccenic acid 1 µM): 120% and 97% and 119% and 112% and 115% | mAC2 activity (%);(100% = Gsα stimulation) stimulated by 300nM Gsα ([1]; cis-Vaccenic acid 3 µM): 117% and 107% and 130% and 128% and 95% | mAC2 activity (%);(100% = Gsα stimulation) stimulated by 300nM Gsα ([1]; cis-Vaccenic acid 6 µM): 93% and 112% and 130% and 120% and 121% | mAC2 activity (%);(100% = Gsα stimulation) stimulated by 300nM Gsα ([1]; cis-Vaccenic acid 10 µM): 141% and 119% and 166% and 123% and 169% | mAC2 activity (%);(100% = Gsα stimulation) stimulated by 300nM Gsα ([1]; cis-Vaccenic acid 20 µM): 146% and 170% and 233% and 243% and 149% | EC50 ([1]; enhancement of 300 nM Gsα-stimulated activity): 10.6 µM | activity at 0.3 µM ([1]; read-out: mAC2 activity (%);(100% = Gsα stimulation) stimulated by 300nM Gsα, cis-Vaccenic acid 0.3 µM): 100% | mAC9 activity (%);(100% = Gsα stimulation) stimulated by 300nM Gsα ([2]; 6 µM fatty acid): 116% and 153% and 119% and 113% | mAC9 activity (%);(100% = Gsα stimulation) stimulated by 300nM Gsα ([2]; 8 µM fatty acid): 174% | EC50 ([2]; enhancement of 300 nM Gsα-stimulated activity, read-out: EC50 for mAC9): 8.5 µM | mAC5 activity [%] (100% = 300nM Gsα stimulation) [3]: 124% and 95% | mAC7 activity [%] (100% = 300nM Gsα stimulation); 20µM fatty acid concentration [4]: 148% and 179% | mAC4 activity [%] (100% = 300nM Gsα stimulation); 20µM fatty acid concentration [5]: 78% and 66% and 107% | mAC1 activity [%] (100% = 300nM Gsα stimulation); 20µM fatty acid concentration [6]: 61% and 67% and 86% | mAC6 activity [%] (100% = 300nM Gsα stimulation) [7]: 91% and 114% | Effect of lipid on 300 nM Gsα-stimulated mAC3 ([8]; 20 µM, in words): efficient enhancers | mAC3 activity [%] (100% = 300nM Gsα stimulation) ([8]; fatty acid 20 µM, individual experiments): 429% and 498% and 460% and 363% and 411% | mAC8 activity [%] (100% = 300nM Gsα stimulation) [9]: 107% and 123%
